# Test results: patent publication US20250250251A1, “PIPERIDINYLPYRIDINYLCARBONITRILE DERIVATIVES AS INHIBITORS OF GLUTAMINYL-PEPTIDE CYCLOTRANSFERASE AND GLUTAMINYL-PEPTIDE CYCLOTRANSFERASE LIKE PROTEIN” (Boehringer Ingelheim International GmbH, priority 2024, published 2025)
# Target: T1, QPCTL (Homo sapiens, UniProt Q9NXS2)
# T1 construct: made in house
# Assay: Assay A: biochemical QPCTL activity assay (MALDI-TOF MS, CD47 peptide substrate)
# Details: Table 3, prior art compounds, read-out: Inhibition of QPCTL: IC50
# How it was run: (§1)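 Enzyme and compound pre-incubated 10 min at 24° C in 20 mM Tris pH 7.5 with TCEP, BSA, Tween20, then 40 min with CD47 peptide (10 μM for QPCTL, 20 μM for QPCT). Pyroglutamate product/internal standard ratio by MALDI-TOF MS, normalized to controls; four-parameter logistic fit.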
# T1 sequence (Q9NXS2 whole entry, species assumed): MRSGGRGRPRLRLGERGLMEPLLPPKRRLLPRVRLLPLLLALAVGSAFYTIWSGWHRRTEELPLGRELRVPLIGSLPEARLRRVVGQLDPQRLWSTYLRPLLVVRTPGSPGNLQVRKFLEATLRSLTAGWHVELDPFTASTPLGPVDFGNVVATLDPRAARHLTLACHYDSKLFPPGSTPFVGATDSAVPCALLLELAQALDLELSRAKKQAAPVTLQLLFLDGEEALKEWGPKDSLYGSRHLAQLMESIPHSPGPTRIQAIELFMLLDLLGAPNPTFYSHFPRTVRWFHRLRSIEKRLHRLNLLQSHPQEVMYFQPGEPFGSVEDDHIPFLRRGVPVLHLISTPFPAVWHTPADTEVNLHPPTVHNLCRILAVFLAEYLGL
row,Compound,IC50 [nM]
1,"COc1ccc(-c2cnc3nccn3c2)c(N2CCC(c3nncn3C)CC2)c1C#N [Compound 94, reference compound]",1
2,"COc1ccc(-c2ccnnc2)c(N2CCC(c3nncn3C)CC2)c1C#N [Compound 26, reference compound]",1
3,"Cn1cnnc1C1CCN(c2c(C#N)cccc2-c2cnc3nccn3c2)CC1 [Compound 93, reference compound]",1
4,"Cn1cc2c(-c3cccc(C#N)c3N3CCC(c4nncn4C)CC3)cncc2n1 [Compound 16, reference compound]",10
5,"Cn1cnnc1C1CCN(c2c(C#N)cccc2-c2cnc3[nH]nc(O)c3c2)CC1 [Compound 113, reference compound]",149

# Target: T2, QPCT (Homo sapiens, UniProt Q16769)
# T2 construct: purchased Origine (OriGene) TP700028
# T2 sequence (Q16769 29-361): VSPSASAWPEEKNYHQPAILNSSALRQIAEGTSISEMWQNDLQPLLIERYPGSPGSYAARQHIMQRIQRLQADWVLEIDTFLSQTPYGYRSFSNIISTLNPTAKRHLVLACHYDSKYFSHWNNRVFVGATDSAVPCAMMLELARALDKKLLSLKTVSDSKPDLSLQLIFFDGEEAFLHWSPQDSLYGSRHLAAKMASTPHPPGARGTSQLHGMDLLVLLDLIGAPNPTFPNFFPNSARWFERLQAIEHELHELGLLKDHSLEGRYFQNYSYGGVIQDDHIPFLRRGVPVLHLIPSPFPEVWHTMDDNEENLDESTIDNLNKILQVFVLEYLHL
# Assay: Assay A: biochemical QPCT activity assay (MALDI-TOF MS, CD47 peptide substrate)
# Details: Table 3, prior art compounds, read-out: Inhibition of QPCT: IC50
# How it was run: as §1
row,Compound,IC50 [nM]
1,"COc1ccc(-c2cnc3nccn3c2)c(N2CCC(c3nncn3C)CC2)c1C#N [Compound 94, reference compound]",3
2,"COc1ccc(-c2ccnnc2)c(N2CCC(c3nncn3C)CC2)c1C#N [Compound 26, reference compound]",2
3,"Cn1cnnc1C1CCN(c2c(C#N)cccc2-c2cnc3nccn3c2)CC1 [Compound 93, reference compound]",5
4,"Cn1cc2c(-c3cccc(C#N)c3N3CCC(c4nncn4C)CC3)cncc2n1 [Compound 16, reference compound]",24
5,"Cn1cnnc1C1CCN(c2c(C#N)cccc2-c2cnc3[nH]nc(O)c3c2)CC1 [Compound 113, reference compound]",164

# System: SIRPα signalling induced by Raji cells
# Assay: Assay B: SIRPα signalling assay using Raji cells
# Format: cell-based
# Details: Homo sapiens, Table 5, prior art compounds, read-out: Inhibition of SIRPα signalling induced by Raji cells: IC50
# How it was run: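 SIRPα signalling induced by Raji cells in a PathHunter reporter line, read as β-galactosidase complementation luminescence. Detection reagent 1 added for 15 min, then reagent 2 for 60 min in the dark, both at room temperature.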
row,Compound,IC50 [nM]
1,"Cn1c(N)nnc1C1CCN(c2c(C#N)cccc2-c2ccc(F)nc2)CC1 [Compound 14, reference compound]",4
2,"COc1ccc(-c2cnc3nccn3c2)c(N2CCC(c3nncn3C)CC2)c1C#N [Compound 94, reference compound]",2040
3,"COc1ccc(-c2ccnnc2)c(N2CCC(c3nncn3C)CC2)c1C#N [Compound 26, reference compound]",452
4,"Cn1cnnc1C1CCN(c2c(C#N)cccc2-c2cnc3nccn3c2)CC1 [Compound 93, reference compound]",1380
5,"Cn1cc2c(-c3cccc(C#N)c3N3CCC(c4nncn4C)CC3)cncc2n1 [Compound 16, reference compound]",778
6,"Cn1cnnc1C1CCN(c2c(C#N)cccc2-c2cnc3[nH]nc(O)c3c2)CC1 [Compound 113, reference compound]",> 10000

# System: SIRPα signalling induced by A549 cells
# Assay: Assay B: SIRPα signalling assay using A549 cells
# Format: cell-based
# Details: Homo sapiens, Table 5, prior art compounds, read-out: Inhibition of SIRPα signalling induced by A549 cells: IC50
# How it was run: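 Raji or A549 cells (5000/well) were each incubated with serially diluted compound for 48 h at 37 °C. Jurkat PathHunter SIRPαV1 reporter cells (15000/well) were then added for 5 h. Beta-galactosidase luminescence gave IC50 via a 4-parameter sigmoidal fit.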
row,Compound,IC50 [nM]
1,"Cn1c(N)nnc1C1CCN(c2c(C#N)cccc2-c2ccc(F)nc2)CC1 [Compound 14, reference compound]",4
2,"COc1ccc(-c2cnc3nccn3c2)c(N2CCC(c3nncn3C)CC2)c1C#N [Compound 94, reference compound]",1300
3,"COc1ccc(-c2ccnnc2)c(N2CCC(c3nncn3C)CC2)c1C#N [Compound 26, reference compound]",208
4,"Cn1cnnc1C1CCN(c2c(C#N)cccc2-c2cnc3nccn3c2)CC1 [Compound 93, reference compound]",356
5,"Cn1cnnc1C1CCN(c2c(C#N)cccc2-c2ccc(F)nc2)CC1 [(1)/QP5020, reference compound]",8
6,"Cn1cc2c(-c3cccc(C#N)c3N3CCC(c4nncn4C)CC3)cncc2n1 [Compound 16, reference compound]",396
7,"Cn1cnnc1C1CCN(c2c(C#N)cccc2-c2cnc3[nH]nc(O)c3c2)CC1 [Compound 113, reference compound]",4240
8,Cn1cnnc1C1CCN(c2c(C#N)cccc2-c2ccnnc2)CC1 [Compound 11],70

# System: not listed separately
# Assay: Assay C: permeability in CACO-2 cells
# Format: in vitro ADME
# Details: human, Caco-2, pH 7.2
# How it was run: (§2)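 Caco-2 monolayers were grown 10–25 days on porous filter inserts. Compound was applied to the apical or basolateral donor side for A-B or B-A transport (3 filters), and the receiver was sampled for up to 2 h. Quantitation was by HPLC-MS/MS or scintillation; efflux ratio = B-A/A-B permeability.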
row,Compound,Papp A→B [×10⁻⁶ cm/s]
1,"COc1ccc(-c2cnc3nccn3c2)c(N2CCC(c3nncn3C)CC2)c1C#N [Compound 94, reference compound]",< 1.4
2,"COc1ccc(-c2ccnnc2)c(N2CCC(c3nncn3C)CC2)c1C#N [Compound 26, reference compound]",< 0.02
3,"Cn1cnnc1C1CCN(c2c(C#N)cccc2-c2cnc3nccn3c2)CC1 [Compound 93, reference compound]",< 0.04
4,"Cn1cc2c(-c3cccc(C#N)c3N3CCC(c4nncn4C)CC3)cncc2n1 [Compound 16, reference compound]",< 0.6
5,"Cn1cnnc1C1CCN(c2c(C#N)cccc2-c2cnc3[nH]nc(O)c3c2)CC1 [Compound 113, reference compound]",< 0.78

# Same assay, conditions: human, Caco-2, pH 7.2; pairs with and without 4-fluoropiperidyl, CACO2 cells; read-out: Efflux ratio (BA/AB)
row,Compound,efflux ratio
1,Cn1cnnc1C1CCN(c2c(C#N)cc(F)cc2-c2cnc3nn(C(C)(C)C)c(C(F)(F)F)c3c2)CC1,5.7
2,Cn1cnnc1C1(F)CCN(c2c(C#N)cc(F)cc2-c2cnc3nn(C(C)(C)C)c(C(F)(F)F)c3c2)CC1,0.8

# Same assay, conditions: human, Caco-2, pH 7.2; read-out: Efflux Ratio
row,Compound,efflux ratio
1,"COc1ccc(-c2cnc3nccn3c2)c(N2CCC(c3nncn3C)CC2)c1C#N [Compound 94, reference compound]",> 0.8
2,"COc1ccc(-c2ccnnc2)c(N2CCC(c3nncn3C)CC2)c1C#N [Compound 26, reference compound]",> 135
3,"Cn1cnnc1C1CCN(c2c(C#N)cccc2-c2cnc3nccn3c2)CC1 [Compound 93, reference compound]",> 40
4,"Cn1cc2c(-c3cccc(C#N)c3N3CCC(c4nncn4C)CC3)cncc2n1 [Compound 16, reference compound]",> 21.7
5,"Cn1cnnc1C1CCN(c2c(C#N)cccc2-c2cnc3[nH]nc(O)c3c2)CC1 [Compound 113, reference compound]",> 5

# System: CACO-2 cells
# Assay: Assay C: permeability in CACO-2 cells
# Format: in vitro ADME
# Details: pairs with and without 4-fluoropiperidyl, CACO2 cells
# How it was run: as §2
row,Compound,CACO2 Perm.
1,Cn1cnnc1C1CCN(c2c(C#N)cc(F)cc2-c2cnc3nn(C(C)(C)C)c(C(F)(F)F)c3c2)CC1,17.0 10^−6 cm/sec
2,Cn1cnnc1C1(F)CCN(c2c(C#N)cc(Cl)cc2-c2ccc(F)nc2)CC1 [Example 18 in EP 23161417.3],66.0 10^−6 cm/sec
3,Cn1cnnc1C1(F)CCN(c2c(-c3ccc(F)nc3)ccnc2C#N)CC1 [Example 10 in EP 22188580.9],11.0 10^−6 cm/sec
4,Cn1cnnc1C1(F)CCN(c2c(C#N)cccc2-c2ccnnc2)CC1 [Example 52 in EP 22216126.7],15.0 10^−6 cm/sec
5,Cn1cnnc1C1CCN(c2c(C#N)cc(F)cc2-c2ccc(F)nc2)CC1 [Compound 130 in WO 2024/020517],24.0 10^−6 cm/sec
6,"Cn1cnnc1C1CCN(c2c(C#N)cccc2-c2ccc(F)nc2)CC1 [(1)/QP5020, reference compound]",28.0 10^−6 cm/sec
7,Cn1cnnc1C1(F)CCN(c2c(-c3cnc4nn(C(C)(C)C)cc4c3)ccc(C(F)(F)F)c2C#N)CC1 [Example 30 in EP 23161417.3],1.7 10^−6 cm/sec
8,Cn1cnnc1C1(F)CCN(c2c(C#N)cc(Cl)cc2-c2cnc3nn(C(C)(C)C)cc3c2)CC1 [Example 19 in EP 23161417.3],18.0 10^−6 cm/sec
9,Cn1cnnc1C1(F)CCN(c2c(C#N)ccnc2-c2ccc(F)nc2)CC1 [Example 1 in EP 22188580.9],28.0 10^−6 cm/sec
10,Cn1cnnc1C1CCN(c2c(C#N)cccc2-c2ccnnc2)CC1 [Compound 11],0.3 10^−6 cm/sec
11,Cn1cnnc1C1(F)CCN(c2c(C#N)cc(F)cc2-c2cnc3nn(C(C)(C)C)c(C(F)(F)F)c3c2)CC1,51.0 10^−6 cm/sec

# System: CYP3A4 mRNA
# Assay: Assay D: CYP induction screening assay in primary human hepatocytes
# Format: in vitro ADME
# Details: Table 10, prior art compounds, 48 h
# How it was run: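 Single-donor cryopreserved human hepatocytes on collagen with Matrigel overlay were exposed to test compound at […] (0.1% DMSO) for 48 h, medium renewed at 24 h. CYP3A4 mRNA quantified by QuantiGene Plex/Luminex, normalised to geometric mean of RPL32, EIF4E2, GUSB and expressed relative to solvent control.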
row,Compound,n-fold induction of CYP3A4 at 10 μM [n-fold]
1,"Cn1c(N)nnc1C1CCN(c2c(C#N)cccc2-c2ccc(F)nc2)CC1 [Compound 14, reference compound]",1.9
2,"COc1ccc(-c2cnc3nccn3c2)c(N2CCC(c3nncn3C)CC2)c1C#N [Compound 94, reference compound]",<1
3,"COc1ccc(-c2ccnnc2)c(N2CCC(c3nncn3C)CC2)c1C#N [Compound 26, reference compound]",1.1
4,"Cn1cnnc1C1CCN(c2c(C#N)cccc2-c2cnc3nccn3c2)CC1 [Compound 93, reference compound]",0.8
5,"Cn1cc2c(-c3cccc(C#N)c3N3CCC(c4nncn4C)CC3)cncc2n1 [Compound 16, reference compound]",1.5
6,"Cn1cnnc1C1CCN(c2c(C#N)cccc2-c2cnc3[nH]nc(O)c3c2)CC1 [Compound 113, reference compound]",<1

# System: murine hepatocytes
# Assay: Assay E: stability in murine hepatocytes
# Format: in vitro ADME, mouse
# Details: Table 13, prior art compounds, 1 μM, 5% species serum
# How it was run: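 Cryopreserved mouse hepatocytes, typically 1 Mio cells/mL in medium with 5% species serum, were dosed at 1 μM compound (0.05% DMSO) at 37 °C and sampled over 0–6 h. Parent decline was measured by HPLC-MS/MS and CLint calculated from dose/AUC, then scaled by well-stirred liver model.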
row,Compound,Mouse Hepatocyte Stability QH [%]
1,"Cn1c(N)nnc1C1CCN(c2c(C#N)cccc2-c2ccc(F)nc2)CC1 [Compound 14, reference compound]",33
2,"COc1ccc(-c2cnc3nccn3c2)c(N2CCC(c3nncn3C)CC2)c1C#N [Compound 94, reference compound]",30
3,"COc1ccc(-c2ccnnc2)c(N2CCC(c3nncn3C)CC2)c1C#N [Compound 26, reference compound]",19
4,"Cn1cnnc1C1CCN(c2c(C#N)cccc2-c2cnc3nccn3c2)CC1 [Compound 93, reference compound]",26
5,"Cn1cnnc1C1CCN(c2c(C#N)cccc2-c2ccc(F)nc2)CC1 [(1)/QP5020, reference compound]",83
6,"Cn1cc2c(-c3cccc(C#N)c3N3CCC(c4nncn4C)CC3)cncc2n1 [Compound 16, reference compound]",61
7,"Cn1cnnc1C1CCN(c2c(C#N)cccc2-c2cnc3[nH]nc(O)c3c2)CC1 [Compound 113, reference compound]",<12

# Target: T3, isolated QPCTL (Homo sapiens, UniProt Q9NXS2)
# T3 sequence (Q9NXS2 whole entry): as the sequence (Q9NXS2 whole entry, species assumed) above
# Assay: not given
# Details: as disclosed in WO 2023/205173; read-out: inhibitory activity on isolated QPCTL, IC50; cited from earlier work
row,Compound,IC50 [nM]
1,"Cn1c(N)nnc1C1CCN(c2c(C#N)cccc2-c2ccc(F)nc2)CC1 [Compound 14, reference compound]",< 1000

# Target: T3, isolated QPCTL
# Assay: not given
# Details: as disclosed in WO 2024/020517; read-out: Inhibitory activity on isolated QPCTL, IC50; cited from earlier work
row,Compound,IC50 [nM]
1,"COc1ccc(-c2cnc3nccn3c2)c(N2CCC(c3nncn3C)CC2)c1C#N [Compound 94, reference compound]",< 100
2,"COc1ccc(-c2ccnnc2)c(N2CCC(c3nncn3C)CC2)c1C#N [Compound 26, reference compound]",< 100
3,"Cn1cnnc1C1CCN(c2c(C#N)cccc2-c2cnc3nccn3c2)CC1 [Compound 93, reference compound]",< 100
4,"Cn1cc2c(-c3cccc(C#N)c3N3CCC(c4nncn4C)CC3)cncc2n1 [Compound 16, reference compound]",< 100
5,"Cn1cnnc1C1CCN(c2c(C#N)cccc2-c2cnc3[nH]nc(O)c3c2)CC1 [Compound 113, reference compound]",< 100
6,Cn1cnnc1C1CCN(c2c(C#N)cccc2-c2ccnnc2)CC1 [Compound 11],< 100
